Test results from ChEMBL document CHEMBL1140941 (J Med Chem, 2009).

Legend:
Glucocorticoid receptor = Glucocorticoid receptor (Homo sapiens, UniProt P04150); experiment: Antagonist activity at gal-GR expressed in african green monkey CV1 cells co-expressing MH100 by luciferase reporter gene assay; format: functional, cell-based, CV-1
[1] = Volume of distribution in CD rat at 3 mg/kg, iv; format: ADME, organism-based; set-up: dose 3 mg/kg, route intravenous; details: in vivo, read-out: Vdss
[2] = target: T1, Estrogen receptor (Homo sapiens) (UniProt P03372); experiment: Antagonist activity at gal-ERalpha expressed in african green monkey CV1 cells co-expressing MH100 at 10 uM by luciferase reporter gene assay; format: functional, cell-based; details: CV-1
T1 sequence (whole entry): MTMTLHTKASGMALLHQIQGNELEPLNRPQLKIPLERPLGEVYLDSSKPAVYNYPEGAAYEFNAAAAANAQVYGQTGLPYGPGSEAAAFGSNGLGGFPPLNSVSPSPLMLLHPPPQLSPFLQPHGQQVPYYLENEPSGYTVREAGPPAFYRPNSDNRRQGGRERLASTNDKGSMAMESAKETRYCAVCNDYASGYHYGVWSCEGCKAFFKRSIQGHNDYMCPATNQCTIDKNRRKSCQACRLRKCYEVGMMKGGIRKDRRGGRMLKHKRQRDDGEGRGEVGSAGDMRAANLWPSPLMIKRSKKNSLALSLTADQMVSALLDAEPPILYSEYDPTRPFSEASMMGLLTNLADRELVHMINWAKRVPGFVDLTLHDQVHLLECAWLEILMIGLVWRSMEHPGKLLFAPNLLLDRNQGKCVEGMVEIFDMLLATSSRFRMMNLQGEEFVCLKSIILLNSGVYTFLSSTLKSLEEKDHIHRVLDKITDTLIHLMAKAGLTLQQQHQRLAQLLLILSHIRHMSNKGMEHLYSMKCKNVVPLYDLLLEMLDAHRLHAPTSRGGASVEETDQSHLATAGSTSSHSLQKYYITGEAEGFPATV

Chain of Glucocorticoid receptor (P04150 whole entry): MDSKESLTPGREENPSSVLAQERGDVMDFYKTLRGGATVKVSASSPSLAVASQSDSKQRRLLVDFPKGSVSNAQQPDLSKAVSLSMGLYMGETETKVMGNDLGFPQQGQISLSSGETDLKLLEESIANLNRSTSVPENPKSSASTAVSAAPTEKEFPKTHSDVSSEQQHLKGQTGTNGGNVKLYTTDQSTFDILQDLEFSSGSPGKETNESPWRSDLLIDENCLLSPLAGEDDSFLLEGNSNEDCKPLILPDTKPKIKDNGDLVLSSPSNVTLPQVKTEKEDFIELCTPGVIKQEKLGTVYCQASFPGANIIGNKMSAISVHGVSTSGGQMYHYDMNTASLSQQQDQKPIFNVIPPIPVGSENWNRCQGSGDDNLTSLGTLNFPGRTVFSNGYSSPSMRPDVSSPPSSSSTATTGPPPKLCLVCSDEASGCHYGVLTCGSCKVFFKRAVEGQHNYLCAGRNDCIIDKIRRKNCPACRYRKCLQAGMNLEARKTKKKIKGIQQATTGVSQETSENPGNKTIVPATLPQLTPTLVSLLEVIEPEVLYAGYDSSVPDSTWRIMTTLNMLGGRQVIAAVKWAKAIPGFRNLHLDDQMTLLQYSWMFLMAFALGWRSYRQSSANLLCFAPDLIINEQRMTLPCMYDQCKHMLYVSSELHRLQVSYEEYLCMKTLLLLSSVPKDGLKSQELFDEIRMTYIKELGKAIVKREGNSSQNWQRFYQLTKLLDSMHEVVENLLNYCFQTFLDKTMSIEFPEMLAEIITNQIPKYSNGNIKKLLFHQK

CC(C)OC(=O)C1=CN(C(=O)c2ccc(F)c(F)c2)CC(C)(C)c2c1[nH]c1ccccc21 [TUROFEXORATE ISOPROPYL]
IC50 (Glucocorticoid receptor): 10 µM
Vd [1]: 3.3 L/kg
inhibition [2]: 24%
